Here are results for 21 compounds from patent publication US9999616B2 (ZENITH EPIGENETICS LTD., priority 2013, dated 2018).

Experiment [1] concerns c-myc in Human AML MV4-11 cells. The experiment is described as follows: Inhibition of cMYC expression (mRNA, real-time PCR) in MV4-11 cells. In kind it is cell-based. The settings on record: 3 h treatment, cMYC mRNA by real-time PCR. On the procedure:
MV4-11 cells (CRL-9591) were plated at a density of 2.5×10^4 cells per well in 96 well U-bottom plates and treated with increasing concentrations of test compound or DMSO (0.1%) in IMDM media containing 10% FBS and penicillin/streptomycin, and incubated for 3 h at 37′C. Triplicate wells were used for each concentration. Cells were pelleted by centrifugation and harvested using the mRNA Catcher PLUS kit according to manufacturer's instructions. The eluted mRNA isolated was then used in a one-step quantitative real-time PCR reaction, using components of the RNA UltraSense™ One-Step Kit (Life Technologies) together with Applied Biosystems TaqMan® primer-probes for cMYC and Cyclophilin. Real-time PCR plates were run on a ViiA™7 real time PCR machine (Applied Biosystems), data was analyzed, normalizing the Ct values for cMYC to an internal control, prior to determining the fold expression of each sample, relative to the control.
On the technique in general: Real-time PCR tracks product formation cycle by cycle.

Experiment [2] deals with Human AML MV-4-11 cells. As to the kind of experiment: Inhibition of cell proliferation in MV4-11 cells (CellTiter Aqueous One). In kind it is cell-based. The following applies: for IC50: MV4-11, 72 h; for Cell Proliferation activity: 72 h. On the procedure:
MV4-11 cells (CRL-9591) were plated at a density of 5×10^4 cells per well in 96 well flat bottom plates and treated with increasing concentrations of test compound or DMSO (0.1%) in IMDM media containing 10% FBS and penicillin/streptomycin. Triplicate wells were used for each concentration and a well containing only media was used as a control. Plates were incubated at 37° C., 5% CO2 for 72 h before adding 20 µL of the CellTiter Aqueous One Solution (Promega) to each well and incubated at 37° C., 5% CO2 for an additional 3-4 h. The absorbance was read at 490 nm in a spectrophotometer and the percentage of cell titer relative to DMSO-treated cells was calculated after correcting for background by subtracting the blank well's signal. IC50 values were calculated using the GraphPad Prism software.

Experiment [3] concerns the target Brd4 bromodomain 1 (BRD4(1)) (Homo sapiens, UniProt O60885). The experiment is described as follows: Inhibition of tetra-acetylated histone H4 binding to Brd4 bromodomain 1, measured by FRET (HTRF). More on the design: made in house; host or cells: E. coli BL21(DE3). The following applies: 2 h at room temperature. On the procedure:
Proteins were cloned and overexpressed with a N-terminal 6×His tag, then purified by nickel affinity followed by size exclusion chromatography. Briefly, E. coli BL21(DE3) cells were transformed with a recombinant expression vector encoding N-terminally Nickel affinity tagged bromodomains from Brd2, Brd3, Brd4. Cell cultures were incubated at 37° C. with shaking to the appropriate density and induced overnight with IPTG. The supernatant of lysed cells was loaded onto Ni-IDA column for purification. Eluted protein was pooled, concentrated and further purified by size exclusion chromatography. Fractions representing monomeric protein were pooled, concentrated, aliquoted, and frozen at −80° C. for use in subsequent experiments.
Binding of tetra-acetylated histone H4 and BET bromodomains was confirmed by a Homogenous Time Resolved Fluorescence Resonance Energy Transfer (HTRF®) method. N-terminally His-tagged bromodomains (200 nM) and biotinylated tetra-acetylated histone H4 peptide (25-50 nM, Millipore) were incubated in the presence of Europium Cryptate-labeled streptavidin (Cisbio Cat. #610SAKLB) and XL665-labeled monoclonal anti-His antibody (Cisbio Cat. #61HISXLB) in a white 96 well microtiter plate (Greiner). For inhibition assays, serially diluted test compound was added to these reactions in a 0.2% final concentration of DMSO. Duplicate wells were used for each concentration tested. Final buffer concentrations were 30 mM HEPES pH 7.4, 30 mM NaCl, 0.3 mM CHAPS, 20 mM phosphate pH 7.0, 320 mM KF, 0.08% BSA. After a 2 h incubation at room temperature, fluorescence was measured at 665 and 620 nm with a SynergyH4 plate reader (Biotek). The binding inhibitory activity was shown by a decrease in 665 nm relative to 620 nm fluorescence. IC50 values were determined from a dose response curve.
For orientation: Time-resolved FRET reads energy transfer from a long-lived donor to a nearby acceptor.

Molecules are shown by their SMILES. A value given as a limit tells only on which side of the number the result lay.

With `Cc1noc(C)c1-c1cc(-c2cnn(C)c2)c2nc[nH]c2c1` [Example Compound 29, 3,5-dimethyl-4-(4-(1-methyl-1H-pyrazol-4-yl)-1H-benzo[d]imidazol-6-yl)isoxazole], the values for the IC50 in experiment [1], in experiment [2] and in experiment [3] were 300 to 3000 nM, 3000 to 30000 nM and at most 300 nM, respectively.
On the same counts, the results for `Cc1noc(C)c1CNc1cc(-c2c(C)noc2C)cc2[nH]cnc12` [Example Compound 39, 6-(3,5-dimethyl-isoxazol-4-yl)-N-((3,5-dimethyl-isoxazol-4-yl)methyl)-1H-benzo[d] imidazol-4-amine] are 300 to 3000 nM, 300 to 3000 nM and at most 300 nM.
For the compound `Cc1noc(C)c1-c1cc(Nc2ccc(Cl)cc2)c2nc[nH]c2c1` [Example Compound 40, N-(4-chlorophenyl)-6-(3,5-dimethyl-isoxazol-4-yl)-1H-benzo[d] imidazol-4-amine], the IC50 (as a rule, the concentration that gives 50% inhibition) is 3000 to 30000 nM in experiment [2] and at most 300 nM in experiment [3].
For `Cc1noc(C)c1-c1cc(NCc2ccccn2)c2nc[nH]c2c1` [Example Compound 47, 6-(3,5-dimethyl-isoxazol-4-yl)-N-(pyridin-2-ylmethyl)-1H-benzo[d] imidazol-4-amine], the IC50 in experiment [1] is 300 to 3000 nM; in experiment [2], 300 to 3000 nM; in experiment [3], at most 300 nM.
Regarding `Cc1noc(C)c1-c1cc(-c2ccc[nH]c2=O)c2nc[nH]c2c1` [Example Compound 56, 3-(6-(3,5-dimethyl-isoxazol-4-yl)-1H-benzo[d]imidazol-4-yl)pyridin-2(1H)-one], the “Cell Proliferation activity” value in experiment [2] is reported as “Not active”. Moreover, in experiment [3], the IC50 fell in the range of 300 to 3000 nM.
Regarding `Cc1noc(C)c1-c1cc(-c2c(C)noc2C)c2nn[nH]c2c1` [Example Compound 95, 4,4′-(1H-benzo[d][1,2,3]triazole-4,6-diyl)bis(3,5-dimethylisoxazole)], the “Cell Proliferation activity” value in experiment [2] is on record as “Not active”. Moreover, the IC50 in experiment [3] lay within 300 to 3000 nM.
Consider `CCNc1nc2c(-c3cccnc3C)cc(-c3c(C)noc3C)cc2[nH]1` [Example Compound 100, 6-(3,5-dimethylisoxazol-4-yl)-N-ethyl-4-(2-methylpyridin-3-yl)-1H-benzo[d]imidazol-2-amine], for which the IC50 in experiment [1] was at most 300 nM; in experiment [2] it was 300 to 3000 nM; in experiment [3] it was at most 300 nM.
Turning to `Cc1nc2c(-c3ccc4c(c3)OCO4)cc(-c3c(C)noc3C)cc2[nH]1` [Example Compound 103, 4-(4-(benzo[d] [1,3]dioxol-5-yl)-2-methyl-1H-benzo[d]imidazol-6-yl)-3,5-dimethyl isoxazole], the IC50 in experiment [1] was 300 to 3000 nM; in experiment [2], 300 to 3000 nM; in experiment [3], at most 300 nM.
With `Cc1nc2c(-c3cncc(F)c3C)cc(-c3c(C)noc3C)cc2[nH]1` [Example Compound 125, 4-(4-(5-fluoro-4-methyl-pyridin-3-yl)-2-methyl-1H-benzo[d]imidazol-6-yl)-3,5-dimethyl isoxazole], the IC50 in experiment [1] is 300 to 3000 nM; in experiment [2], 300 to 3000 nM; in experiment [3], at most 300 nM.
Turning to `Cc1nc2c(-c3cccc(C(N)=O)c3C)cc(-c3c(C)noc3C)cc2[nH]1` [Example Compound 126, 3-(6-(3,5-dimethylisoxazol-4-yl)-2-methyl-1H-benzo[d]imidazol-4-yl)-2-methylbenzamide], the IC50 is at most 300 nM in experiment [1], 300 to 3000 nM in experiment [2] and at most 300 nM in experiment [3].
Take `Cc1noc(C)c1-c1cc(-c2c(C)nn(C)c2C)c2nc(N3CCOCC3)[nH]c2c1` [Example Compound 184, 4-(6-(3,5-dimethyl-isoxazol-4-yl)-4-(1,3,5-trimethyl-1H-pyrazol-4-yl)-1H-benzo[d]imidazol-2-yl)morpholine]: the IC50 in experiment [1], in experiment [2] and in experiment [3] was at most 300 nM each time.
For the compound `Cc1noc(C)c1-c1cc(-c2c(C)nn(C)c2C)c2nc(NC3CCN(C)CC3)[nH]c2c1` [Example Compound 185, 6-(3,5-dimethyl-isoxazol-4-yl)-N-(1-methyl-piperidin-4-yl)-4-(1,3,5-trimethyl-1H-pyrazol-4-yl)-1H-benzo[d] imidazol-2-amine], the IC50 in experiment [1] was 300 to 3000 nM; in experiment [2], 300 to 3000 nM; in experiment [3], at most 300 nM.
Regarding `CSc1nc2c(-c3c(C)nn(C)c3C)cc(-c3c(C)noc3C)cc2[nH]1` [Example Compound 187, 3,5-dimethyl-4-(2-(methylthio)-4-(1,3,5-trimethyl-1H-pyrazol-4-yl)-1H-benzo[d]imidazol-6-yl)isoxazole], the IC50 in experiment [1], in experiment [2] and in experiment [3] was at most 300 nM each time.
Regarding `CSc1nc2c(-c3c(C)nn(C)c3C)cc(-c3c(C)noc3C)cc2n1C` [Example Compound 188, 3,5-dimethyl-4-(1-methyl-2-(methylthio)-4-(1,3,5-trimethyl-1H-pyrazol-4-yl)-1H-benzo[d]imidazol-6-yl)isoxazole], the IC50 in experiment [1], in experiment [2] and in experiment [3] was 300 to 3000 nM each time.
In the case of `Cc1noc(C)c1-c1cc(-c2c(C)nn(C)c2C)c2nc(NC3CCOCC3)[nH]c2c1` [Example Compound 190, 6-(3,5-dimethyl-isoxazol-4-yl)-N-(tetrahydro-2H-pyran-4-yl)-4-(1,3,5-trimethyl-1H-pyrazol-4-yl)-1H-benzo[d] imidazol-2-amine], the IC50 is 300 to 3000 nM in experiment [1], at most 300 nM in experiment [2] and at most 300 nM in experiment [3].
On to `Cc1ccc(C(N)=O)cc1-c1cc(-c2c(C)noc2C)cc2[nH]c(N3CCOCC3)nc12` [Example Compound 197, 3-(6-(3,5-dimethyl-isoxazol-4-yl)-2-morpholino-1H-benzo[d]imidazol-4-yl)-4-methyl benzamide], for which the values for the IC50 in experiment [1], in experiment [2] and in experiment [3] were 300 to 3000 nM, 300 to 3000 nM and at most 300 nM, respectively.
On to `Cc1ccc(C(=O)N2CCCC2)cc1-c1cc(-c2c(C)noc2C)cc2[nH]c(N3CCCC3)nc12` [Example Compound 218, (3-(6-(3,5-dimethylisoxazol-4-yl)-2-(pyrrolidin-1-yl)-1H-benzo[d]imidazol-4-yl)-4-methylphenyl)(pyrrolidin-1-yl)methanone], for which, in experiment [3], the IC50 is at most 300 nM.
The same measure, in the same setting: the result for `Cc1ccc(C(N)=O)cc1-c1cc(-c2c(C)noc2C)cc2[nH]c(NCc3cccnc3)nc12` [Example Compound 219, 3-(6-(3,5-dimethyl-isoxazol-4-yl)-2-((pyridin-3-ylmethyl)amino)-1H-benzo[d]imidazol-4-yl)-4-methyl-benzamide] reads at most 300 nM.
On the same count and under the same terms, the value for `Cc1ccc(C(N)=O)cc1-c1cc(-c2c(C)noc2C)cc2[nH]c(NCc3ccccc3)nc12` [Example Compound 220, 3-(2-(benzyl-amino)-6-(3,5-dimethylisoxazol-4-yl)-1H-benzo[d]imidazol-4-yl)-4-methyl-benzamide] was at most 300 nM.
The same measure, in the same setting: the result for `Cc1noc(C)c1-c1cc(-c2c(C)nn(C)c2C)c2nc(NCc3cccnc3)[nH]c2c1` [Example Compound 221, 6-(3,5-dimethyl-isoxazol-4-yl)-N-(pyridin-3-ylmethyl)-4-(1,3,5-trimethyl-1H-pyrazol-4-yl)-1H-benzo[d] imidazol-2-amine] reads at most 300 nM.
For the compound `Cc1noc(C)c1-c1cc(-c2c(C)noc2C)c2nc(NC3CCN(C)CC3)[nH]c2c1` [Example Compound 232, 4,6-bis(3,5-dimethyl-isoxazol-4-yl)-N-(1-methyl-piperidin-4-yl)-1H-benzo[d] imidazol-2-amine], the IC50 was 300 to 3000 nM in experiment [2] and at most 300 nM in experiment [3].
